The record followed here is US5849709A, “Saccharopeptides and derivatives thereof” (Glycomed Incorporated, priority 1995, dated 1998).

Experiment [1] relates to β-glucuronidase. Put plainly: β-Glucuronidase inhibition assay (Sigma kit 325-A, phenolphthalein glucuronic acid substrate). The class given is biochemical. The note with it: 15 μl of 50 mM 9β; for A550 value (β-glucuronidase assay): 550 nm, pH 4.5. How it is done:
The β-glucuronidase inhibition assay is preferably performed in a solvent. Examples of the solvent include water and a suitable buffer, preferably an acetate or an AMP (2-amino-2-methyl-1-propanol) buffer. Phenolphthalein mono-β-glucuronic acid and a saccharopeptide substrate are treated with the enzyme at room temperature, at a pH of about 4-5. The reaction period ranges from 0.5-2 hours. After completion of the reaction, the enzymic reaction is stopped by adjusting the pH and the absorbance is measured at 550 nm.
Composition 9β was used to measure the β-glucuronidase activity, and the measurement was performed in the same manner as that of the conventional method.
The procedure was carried out according to instructions provided in the Sigma kit 325-A. The reagents used were provided in the kit and the proportions of the reagents used is described in the table below:
______________________________________
*0.2M sodium acetate buffer, pH 4.5 at 25° C.;
^# 30 mM phenolphthalein glucuronic acid (PGA), pH 4.5 at 25°
All components, except PGA, were pre-incubated at room temperature for 30 min, PGA was then added to the mixture. At various time points (0.5, 1 and 2h), 2 μl aliquots were removed and added to 1 ml assay diluent, mixed and absorbance read at 550 nm against the blank (A550). The assay diluent is a mixture of acetate buffer (1.44 ml), water (0.96 ml) and AMP (2-amino-2-methyl-1-propanol) buffer (12 ml, 0.1M AMP, pH 11, containing 0.2% sodium lauryl sulfate).

The target of experiment [2] is human recombinant bFGF (Homo sapiens, UniProt P09038). Put plainly: UC-PBA assay: binding of RO-12 UC cells to bFGF coated micro-titer wells. It is filed as cell-based. The note with it: for bFGF binding activity in the UC-PBA assay: heparin as positive control. How it is done:
The effect of compositions 26 on the binding of RO-12 UC cells to bFGF coated micro-titer wells was determined as described by Ishihara, M., et al., Anal Biochem (1992) 202:310-315. (Also see U.S. Pat. No. 5,296,471, issued Mar. 22, 1994). Bound cells are readily quantitated as total protein.
The assay was run as follows: Fifty microliters of 10 μg/ml human recombinant bFGF was added to wells of a 96-well tissue culture plate and incubated overnight at 4° C. The wells were aspirated with PBS to remove any unbound bFGF, rinsed twice with PBS, and subsequently incubated with PBS containing 5% (v/v) fetal bovine serum for 1 hour at room temperature. RO-12 UC cells were suspended at a density of 3×10^6 cells/ml in PBS containing 5% fetal bovine serum. To this mixture was added the desired amount of sulfated composition, or heparin. They were made up in PBS plus 2.5% fetal bovine serum. A control was also run, containing only PBS plus 2.5% fetal bovine serum. Next, 100 μl of the cell suspension was immediately added to the microtiter wells, and incubated for 5 minutes, after which the wells were washed 3 times with PBS. Finally, the amount of cell protein bound to the wells was determined by dissolving the bound cells in 20 μl of 5% SDS and measuring the protein concentration of the cell lysates. BSA was used as the standard.
(§1) The APTT values of composition 26 were determined as described in U.S. Pat. No. 5,296,471. Table 3 lists the results for the UC-PBA assay, the ACE cell growth inhibition assay, and the APTT values respectively.

Experiment [3] can be described thus: APTT. How it is done: as §1

Sequence of human recombinant bFGF (P09038 134-288): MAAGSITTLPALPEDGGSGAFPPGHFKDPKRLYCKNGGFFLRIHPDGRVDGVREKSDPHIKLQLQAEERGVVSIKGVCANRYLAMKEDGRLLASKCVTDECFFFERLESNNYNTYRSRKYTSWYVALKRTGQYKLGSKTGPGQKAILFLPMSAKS

As to `[N-]=[N+]=N[C@@H]1O[C@H](C(=O)N[C@@H]2O[C@H](C(=O)O)[C@@H](O)[C@H](O)[C@H]2O)[C@@H](O)[C@H](O)[C@H]1O` [Composition 9β, N-(β-D-glucopyran-1-osyluronic acid)-1-azido-1-deoxy-β-D-glucopyranuronamide], the “reduction of β-glucuronidase activity” value in experiment [1] is listed as “about 85%”. The “A550 value (β-glucuronidase assay)” value in experiment [1] (0.5 h, room temperature (control 0.104)) is reported as 0.014; in experiment [1] (1.0 h, room temperature (control 0.199)) it was 0.030; in experiment [1] (2.0 h, room temperature (control 0.396)), 0.059.
Regarding `O=C(CCC(=O)N[C@@H]1O[C@H](COS(=O)(=O)O)[C@@H](O[C@H]2O[C@H](COS(=O)(=O)O)[C@@H](O[C@H]3O[C@H](COS(=O)(=O)O)[C@@H](OS(=O)(=O)O)[C@H](OS(=O)(=O)O)[C@H]3OS(=O)(=O)O)[C@H](OS(=O)(=O)O)[C@H]2OS(=O)(=O)O)[C@H](OS(=O)(=O)O)[C@H]1OS(=O)(=O)O)N[C@@H]1O[C@H](COS(=O)(=O)O)[C@@H](O[C@H]2O[C@H](COS(=O)(=O)O)[C@@H](O[C@H]3O[C@H](COS(=O)(=O)O)[C@@H](OS(=O)(=O)O)[C@H](OS(=O)(=O)O)[C@H]3OS(=O)(=O)O)[C@H](OS(=O)(=O)O)[C@H]2OS(=O)(=O)O)[C@H](OS(=O)(=O)O)[C@H]1OS(=O)(=O)O` [Composition 26], in experiment [2] (RO-12 UC cells, bFGF coated wells), the half-inhibitory concentration (IC50) is 372 nM. Also, the “bFGF binding activity in the UC-PBA assay” value in experiment [2] was “comparable to heparin”. The molecule also registered an APTT value in experiment [3] (as described in U.S. Pat. No. 5,296,471) of 14.2%. The “APTT value, comparison in words” value in experiment [3] (versus other compounds of similar size) is “significantly lower than that of other compounds of similar size”.
With Heparin [reference compound], the “bFGF binding activity in the UC-PBA assay” value in experiment [2] is recorded as “inhibits RO-12 UC cell binding”.
